The assay has as its system All receptor. As to the kind of experiment: Inhibition of pressor response to intravenous angiotensin II in anaesthetised rats (AII receptor blocking activity). Conditions: i.v.; dose inhibiting by fifty percent the pressor response to 50 ng/kg i.v. angiotensin II; angiotensin II injected two minutes after test compound; male Wister-Imamichi rats. Type of assay: in vivo. The method, then: Evaluation of All receptor blocking activity by Inhibition of pressor response to angiotensin II
The biological activity of each compound was assessed by determining the dose required to inhibit the pressor response to intravenous angiotensin II by fifty percent (ID50) in rats. Male Wister-Imamichi rats, each weighing 300 to 400 g, were anaesthesized by intraperitoneal injection of 100 mg/Kg of sodium thiobutabarbital [Inactin (trade name)] and two cannulae were inserted: one into the femoral artery for measuring blood pressure and the other into the femoral vein for injecting drugs. Fifty ng/kg of angiotension II were intravenously administered at intervals of about 10 minutes, and the elevation of blood pressure (normally about 50 mmHg) was observed. After constant pressor responses to angiotensin II were obtained, a test compound was intravenously administered. Two minutes later, angiotension II was again injected, and the inhibitory effect of the test compound was estimated. The percent inhibitions of the pressor response to angiotensin II by progressive increase of the test compound was used to calculate the value of ID50. Angiotensin II was used in this test dissolved in 0.5 % bovine serum albumin (BSA) and the test compounds were dissolved in 100% dimethyl sulphoxide (DMSO).
In turn, `COCc1nc(C(C)(C)O)c(C(=O)O)n1Cc1ccc(-c2ccccc2-c2nnn[nH]2)cc1` [Example 2, 4-(1-Hydroxy-1-methylethyl)-2-methoxymethyl-1-{4-[2-(tetrazol-5-yl)phenyl]phenyl}methylimidazole-5-carboxylic acid] came in with an ID50 of 0.0066 mg/kg.

For `CCOCc1nc(C(C)(C)O)c(C(=O)O)n1Cc1ccc(-c2ccccc2-c2nnn[nH]2)cc1` [Example 6, 2-Ethoxymethyl-4-(1-hydroxy-1-methylethyl)-1-{4-[2-(tetrazol-5-yl)phenyl]phenyl}methylimidazole-5-carboxylic acid], the ID50 turned out to be 0.0059 mg/kg.

Consider `CCCOCc1nc(C(C)(C)O)c(C(=O)O)n1Cc1ccc(-c2ccccc2-c2nnn[nH]2)cc1` [Example 10, 4-(1-Hydroxy-1-methylethyl)-2-propoxymethyl-1-{4-[2-(tetrazol-5-yl)phenyl]phenyl}methylimidazole-5-carboxylic acid], for which the ID50 was found to be 0.016 mg/kg.

In turn, `COC(C)c1nc(C(C)(C)O)c(C(=O)O)n1Cc1ccc(-c2ccccc2-c2nnn[nH]2)cc1` (stereo not shown) [Example 14, 4-(1-Hydroxy-1-methylethyl)-2-(1-methoxyethyl)-1-{4-[2-(tetrazol-5-yl)phenyl]phenyl}methyl-imidazole-5-carboxylic acid] registered an ID50 of 0.074 mg/kg.

`CSCc1nc(C(C)(C)O)c(C(=O)O)n1Cc1ccc(-c2ccccc2-c2nnn[nH]2)cc1` [Example 22, 4-(1-Hydroxy-1-methylethyl)-2-methylthiomethyl-1-{4-[2-(tetrazol-5-yl)phenyl]phenyl}methyl-imidazole-5-carboxylic acid]: the ID50 worked out at 0.025 mg/kg.

On to `CSc1nc(C(C)(C)O)c(C(=O)O)n1Cc1ccc(-c2ccccc2-c2nnn[nH]2)cc1` [Example 25, 4-(1-Hydroxy-1-methylethyl)-2-methylthio-1-{4-[2-(tetrazol-5-yl)phenyl]phenyl}methyl-imidazole-5-carboxylic acid], for which the ID50 came to 0.026 mg/kg.

Take `CCSc1nc(C(C)(C)O)c(C(=O)O)n1Cc1ccc(-c2ccccc2-c2nnn[nH]2)cc1` [Example 27, 2-Ethylthio-4-(1-hydroxy-1-methylethyl)-1-{4-[2-(tetrazol-5-yl)phenyl]phenyl}methyl-imidazole-5-carboxylic acid]: the ID50 came out at 0.019 mg/kg.
